{
  "source": "patent US20070122470A1",
  "about": "“New Combination Dosage Form” (priority 2005, published 2007)",
  "key": {"[1]": {"experiment": "randomized, double-blind, placebo-controlled trial of esomeprazole 20 mg once daily for 26 weeks in patients receiving ASA", "type": "in vivo", "experimental": "Patients were randomized to receive either esomeprazole 20 mg (administered as esomeprazole magnesium, i.e. Nexium® owned by AstraZeneca AB) or placebo once daily for 26 weeks. The primary outcome variable was the presence of gastric and/or duodenal ulcers at endoscopy over the 26-week period. A total of 991 patients, all receiving ASA in doses varying between 75-325 mg/day (57.1% male, mean age 69.3 years, mean acetyl salicylic acid (ASA) dose 124.0 mg/day) were included in the intent-to-treat population. The cumulative proportion of patients without either gastric or duodenal ulcer at 26 weeks was 98.2% with esomeprazole, compared with 93.8% with placebo (life table estimates, p=0.0007). The incidence of gastric ulcers was lower in patients taking esomeprazole than in those taking placebo (1.2% vs. 3.8%), as was the incidence of duodenal ulcers (0.4% and 1.6% for esomeprazole and placebo, respectively). Eight patients (1.6%) had developed an ulcer, in the esomeprazole group by 6 months, compared with 27 patients (5.4%) in the placebo group. This corresponded to a relative reduction of developing an ulcer of 70% when taking esomeprazole rather than placebo. A total of 95.6% of patients treated with esomeprazole had no esophageal lesions at week 26, compared with 81.7% of patients treated with placebo (p<0.0001)."}, "[2]": {"conditions": "cited from earlier work"}, "[3]": {"conditions": "concomitant administration for patients treated with ASA (Müller et al 1997); cited from earlier work"}, "[4]": {"conditions": "esomeprazole 20 mg once daily, 26 weeks, patients on ASA"}},
  "data": [
    {"smiles": "COc1ccc2nc([S@@+]([O-])Cc3ncc(C)c(OC)c3C)[nH]c2c1", "note": "[esomeprazole]", "values": [
      {"measurement": "resolution of investigator-assessed upper gastrointestinal symptoms", "setting": "[1]; all symptoms, versus placebo", "value": "higher with esomeprazole than with placebo"},
      {"measurement": "safety and tolerability", "setting": "[1]; esomeprazole 20 mg once daily for 26 weeks, patients on ASA", "value": "safe and well tolerated"},
      {"measurement": "incidence of duodenal ulcers", "setting": "[1]; [4]", "value": 0.4, "unit": "%"},
      {"measurement": "incidence of gastric ulcers", "setting": "[1]; [4]", "value": 1.2, "unit": "%"},
      {"measurement": "cumulative proportion of patients without either gastric or duodenal ulcer at 26 weeks", "setting": "[1]; esomeprazole 20 mg once daily, 26 weeks, patients ≧60 years on ASA 75-325 mg/day, life table estimates, p=0.0007 vs placebo", "value": 98.2, "unit": "%"},
      {"measurement": "patients who had developed an ulcer by 6 months", "setting": "[1]; esomeprazole 20 mg once daily, patients on ASA, eight patients", "value": 1.6, "unit": "%"},
      {"measurement": "patients with no esophageal lesions at week 26", "setting": "[1]; esomeprazole 20 mg once daily, patients on ASA, p<0.0001 vs placebo", "value": 95.6, "unit": "%"},
      {"measurement": "relative reduction of developing an ulcer", "setting": "[1]; esomeprazole rather than placebo, by 6 months", "value": 70, "unit": "%"},
      {"measurement": "proportion of patients without esophageal lesions at 6 months", "setting": "[1]; patients with no lesions and those with Los Angeles grade A lesions at baseline, versus placebo", "value": "higher with esomeprazole than with placebo"}
    ]},
    {"smiles": "CC(=O)Oc1ccccc1C(=O)O", "note": "[ASA, acetyl salicylic acid]", "values": [
      {"measurement": "relative risk of developing an ulcer complication like bleeding from the stomach or the duodenum", "setting": "[2]; daily dose as low as 75 mg (Weil et al BMJ 1995)", "value": "doubles"},
      {"measurement": "hospital admissions due to adverse drug reactions caused by ASA", "setting": "[2]; epidemiological data from the UK (Pirmohamed et al BMJ 2004)", "value": 18, "unit": "%"}
    ]},
    {"smiles": "Cc1c(OCC(F)(F)F)ccnc1C[S+]([O-])c1nc2ccccc2[nH]1", "note": "(stereo not drawn) [lansoprazole]", "values": [
      {"measurement": "effect on damages on the mucosa caused by ASA", "setting": "[3]", "value": "reduce damages on the mucosa caused by ASA"}
    ]}
  ]
}
